Laboratory results: ChEMBL document CHEMBL3217409 (Medchemcomm, 2011)
Activity calls are given as the source filed them. The calls are words filed in the database; no cut-off is given here.

How the values were obtained:
[1] = target: T1, Melatonin receptor type 1B (Homo sapiens, UniProt P49286); experiment: Displacement of 2-[125I]-iodomelatonin from human MT2 receptor expressed in CHO cells; assay type: cell-based
T1 sequence (P49286 whole entry): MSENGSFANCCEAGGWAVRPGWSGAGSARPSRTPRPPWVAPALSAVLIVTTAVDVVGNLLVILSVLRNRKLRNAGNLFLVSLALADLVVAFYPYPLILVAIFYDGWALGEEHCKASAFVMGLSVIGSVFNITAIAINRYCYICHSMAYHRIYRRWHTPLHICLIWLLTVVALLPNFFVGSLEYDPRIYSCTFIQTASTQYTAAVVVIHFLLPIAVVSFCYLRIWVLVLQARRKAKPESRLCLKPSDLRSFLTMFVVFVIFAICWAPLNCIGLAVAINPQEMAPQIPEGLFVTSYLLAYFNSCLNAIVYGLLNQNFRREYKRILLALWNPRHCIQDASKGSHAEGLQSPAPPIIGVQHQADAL

[2] = target: T2, Melatonin receptor type 1A (Homo sapiens, UniProt P48039); experiment: Displacement of 2-[125I]-iodomelatonin from human MT1 receptor expressed in CHO cells; assay type: cell-based
[3] = species on record: Homo sapiens; experiment: Selectivity ratio of Ki for human MT1 receptor to Ki for human MT2 receptor
[4] = target: T3, Melatonin receptor type 1B (Homo sapiens) (UniProt P49286); experiment: Intrinsic activity at human MT2 receptor expressed in CHO cells; assay type: cell-based
T3 sequence (whole entry): T1 sequence (P49286 whole entry)

[5] = target: T2, Melatonin receptor type 1A; experiment: Antagonist activity at human MT1 receptor expressed in CHO cells assessed as inhibition of melatonin-induced activity at 10 to 100 nM; assay type: cell-based
[6] = target: T2, Melatonin receptor type 1A; experiment: Intrinsic activity at human MT1 receptor expressed in CHO cells; assay type: cell-based
[7] = target: T3, Melatonin receptor type 1B (Homo sapiens); experiment: Antagonist activity at human MT2 receptor expressed in CHO cells assessed as inhibition of melatonin-induced activity at 10 to 100 nM; assay type: cell-based

T2 sequence (P48039 whole entry): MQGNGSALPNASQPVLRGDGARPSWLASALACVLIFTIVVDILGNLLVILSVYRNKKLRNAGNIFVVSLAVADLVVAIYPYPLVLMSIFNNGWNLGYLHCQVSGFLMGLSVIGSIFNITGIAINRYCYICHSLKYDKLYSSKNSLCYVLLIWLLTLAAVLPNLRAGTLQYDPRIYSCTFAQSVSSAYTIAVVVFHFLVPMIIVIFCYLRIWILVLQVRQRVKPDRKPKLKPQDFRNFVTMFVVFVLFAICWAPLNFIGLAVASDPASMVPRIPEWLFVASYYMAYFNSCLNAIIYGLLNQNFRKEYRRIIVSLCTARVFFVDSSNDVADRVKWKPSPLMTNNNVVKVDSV

Question: For `COc1ccc2[nH]c(CN3Cc4ccccc4C3)c(CCNC(=O)C3CC3)c2c1`, which Ki [1] is on record?
Answer: The Ki was 33.9 nM.

Question: And the Ki [2]?
Answer: The Ki was 61.7 nM.

Question: Which results are given for `C=CCC(=O)NCCc1c(CN2Cc3ccccc3C2)[nH]c2ccc(OC)cc12`?
Answer: Ki [1]: 9.33 nM; Ki [2]: 24 nM

Question: Which Ki [1] does the source give for `COc1ccc2[nH]c(Cn3ccc4ccccc43)c(CCNC(=O)C3CCC3)c2c1` here?
Answer: Its Ki is 81.3 nM.

Question: And the Ki [2]?
Answer: Its Ki is 57.5 nM.

Question: How did the Ki [1] turn out when `CCC(=O)NCCc1c(CN2Cc3ccccc3C2)[nH]c2ccc(OC)cc12` was run?
Answer: The Ki was 3.72 nM.

Question: And the Ki [2]?
Answer: Its Ki is 5.62 nM.

Question: What does the source list for `COc1ccc2[nH]c(CN3Cc4ccccc4C3)c(CCNC(=O)C3CCC3)c2c1`?
Answer: Ki [1]: 200 nM; Ki [2]: 112 nM

Question: With `CCC(=O)NCCCc1cc(OC)ccc1OCc1cccc(OC)c1` as the molecule, how does the Ki [1] read?
Answer: Its Ki is 1.7 nM.

Question: What about the Ratio Ki [3] of the same molecule?
Answer: The Ratio Ki was 790.

Question: And the Ki [2]?
Answer: Its Ki is 1350 nM.

Question: With `COc1ccc2[nH]c(Cn3ccc4ccccc43)c(CCNC(C)=O)c2c1` as the molecule, how does the Ki [1] read?
Answer: Its Ki is 5.75 nM.

Question: And the Ki [2]?
Answer: The Ki was 182 nM.

Question: For `COc1ccc2[nH]c(CN3CCc4ccccc4C3)c(CCNC(C)=O)c2c1`, which Ki [1] is on record?
Answer: The Ki was 21.4 nM.

Question: What about the Ki [2] of the same molecule?
Answer: Its Ki is 251 nM.

Question: What does the source list for `COc1ccc2[nH]c(CN3Cc4ccccc4C3)c(CCNC(C)=O)c2c1`?
Answer: Activity [4]: inactive; Ki [1]: 2.24 nM; Ratio Ki [3]: 124; inhibition [5]: Active; Activity [6]: inactive; inhibition [7]: Active; Ki [2]: 282 nM

Question: For `COc1ccc2[nH]c(CN3CCc4ccccc43)c(CCNC(C)=O)c2c1`, which Ratio Ki [3] is on record?
Answer: Its Ratio Ki is 95.
